Laboratory results reported in ChEMBL document CHEMBL5260833, “An overview of quinazolines: Pharmacological significance and recent developments” (Eur J Med Chem, 2018).

Key:
Rattus norvegicus [1] = assay: Inhibition of AII induced mean arterial blood pressure in rat assessed as vasoconstrictor at 1 mg/kg, po; assay type: functional
Cytospora mali = assay: Antifungal activity against Valsa mali assessed as bacterial growth inhibition at 50 ug/ml incubated for 5 days relative to control; assay type: functional; details: 120 h, time 5 day
Fusarium graminearum = assay: Antifungal activity against Gibberella zeae assessed as bacterial growth inhibition at 50 ug/ml incubated for 5 days relative to control; assay type: functional; details: 120 h, time 5 day
Fusarium oxysporum = assay: Antifungal activity against Fusarium oxysporum assessed as bacterial growth inhibition at 50 ug/ml incubated for 5 days relative to control; assay type: functional; details: 120 h, time 5 day
Rattus norvegicus [2] = assay: Inhibition of AII induced rat assessed as vasoconstrictor at 15 mg/kg, iv; assay type: functional
[3] = biological target: T1, Type-1 angiotensin II receptor A (Rattus norvegicus, UniProt P25095); assay: Inhibition of rat adrenal cortex angiotensin II; assay type: tissue-based
T1 sequence (P25095 whole entry): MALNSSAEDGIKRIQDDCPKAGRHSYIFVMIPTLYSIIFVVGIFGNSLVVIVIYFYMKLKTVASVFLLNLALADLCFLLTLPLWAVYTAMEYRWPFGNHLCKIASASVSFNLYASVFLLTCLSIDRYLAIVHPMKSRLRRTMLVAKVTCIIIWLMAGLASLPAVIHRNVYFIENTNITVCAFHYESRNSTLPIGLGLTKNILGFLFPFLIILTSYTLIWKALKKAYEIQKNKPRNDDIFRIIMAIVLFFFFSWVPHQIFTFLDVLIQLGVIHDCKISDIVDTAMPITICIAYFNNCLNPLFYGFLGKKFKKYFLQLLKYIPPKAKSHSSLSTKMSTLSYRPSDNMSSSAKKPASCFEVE

Thymidylate synthase = Thymidylate synthase (Homo sapiens, UniProt P04818); assay: Inhibition of human TS
Thymidylate synthase, sequence (P04818 whole entry): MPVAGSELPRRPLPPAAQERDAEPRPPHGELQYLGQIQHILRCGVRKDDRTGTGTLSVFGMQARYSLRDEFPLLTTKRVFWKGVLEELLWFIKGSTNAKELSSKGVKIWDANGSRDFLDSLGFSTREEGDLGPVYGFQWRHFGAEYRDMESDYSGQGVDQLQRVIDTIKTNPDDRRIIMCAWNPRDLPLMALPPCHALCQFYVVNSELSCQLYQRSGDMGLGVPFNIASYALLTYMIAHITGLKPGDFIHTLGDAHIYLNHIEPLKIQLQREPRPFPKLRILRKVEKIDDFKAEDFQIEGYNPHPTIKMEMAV

[4] = Inhibition of Lacticaseibacillus casei TS
[5] = biological target: T2, Type-2 angiotensin II receptor (Rattus norvegicus, UniProt P35351); assay: Binding affinity to AT2 in rat brain; assay type: tissue-based
T2 sequence (P35351 whole entry): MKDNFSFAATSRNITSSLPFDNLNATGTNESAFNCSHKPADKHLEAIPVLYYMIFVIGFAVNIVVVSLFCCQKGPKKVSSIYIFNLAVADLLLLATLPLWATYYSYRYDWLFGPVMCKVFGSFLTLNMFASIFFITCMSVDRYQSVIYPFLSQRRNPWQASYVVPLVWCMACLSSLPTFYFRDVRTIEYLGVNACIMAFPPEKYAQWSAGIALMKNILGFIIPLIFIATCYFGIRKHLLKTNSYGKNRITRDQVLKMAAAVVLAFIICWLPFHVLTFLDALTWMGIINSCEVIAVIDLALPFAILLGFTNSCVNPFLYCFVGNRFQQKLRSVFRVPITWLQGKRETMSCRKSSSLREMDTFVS

CCCCc1nc2ccc([C@@]3(C(=O)O)C[C@H]4CCCN4O3)cc2c(=O)n1Cc1ccc(-c2ccccc2-c2nnn[nH]2)cc1
Activity (Rattus norvegicus [1]): 55 mmHg

Cc1cc(O)no1 [HYMEXAZOL]
inhibition at 50 µg/mL (Cytospora mali): 22.5% | inhibition at 50 µg/mL (Fusarium graminearum): 50.4% | inhibition at 50 µg/mL (Fusarium oxysporum): 55.4%

CCCCc1nc2ccc([C@]3(C)C[C@H]4CCCN4O3)cc2c(=O)n1Cc1ccc(-c2ccccc2-c2nn[nH]n2)cc1
Activity (Rattus norvegicus [1]): 55 mmHg

CCCCC(CCCC)C1Nc2ccccc2C(=O)N1Cc1ccc(-c2ccccc2-c2nnn[nH]2)cc1 (centres undefined)
inhibition in vivo at 15 mg/kg (Rattus norvegicus [2]): 88% | IC50 [3]: 12000 nM

CCCCc1nc2ccc([C@@]3(c4ccccc4)C[C@H]4CCCN4O3)cc2c(=O)n1Cc1ccc(-c2ccccc2-c2nnn[nH]2)cc1
Activity (Rattus norvegicus [1]): 55 mmHg

CCCCc1nc2ccc([C@@]3(C)C[C@H]4CC[C@H](C)N4O3)cc2c(=O)n1Cc1ccc(-c2ccccc2-c2nnn[nH]2)cc1
Activity (Rattus norvegicus [1]): 55 mmHg

COC(=O)[C@H](Cc1ccc(N)cc1)NC(=O)c1ccc(Sc2c(C)ccc3nc(N)[nH]c(=O)c23)cc1
IC50 (Thymidylate synthase): 3 nM | IC50 [4]: 200 nM

COC(=O)[C@H](Cc1ccc(O)c(O)c1)NC(=O)c1ccc(Sc2c(C)ccc3nc(N)[nH]c(=O)c23)cc1
IC50 (Thymidylate synthase): 3 nM | IC50 [4]: 200 nM

Cc1ccc2nc(N)nc(O)c2c1Sc1ccc(C(=O)N[C@H](C(=O)O)c2ccccc2)cc1
IC50 (Thymidylate synthase): 3 nM | IC50 [4]: 200 nM

CCC1Nc2ccc(C(C)C)cc2C(=O)N1Cc1ccc(-c2ccccc2-c2nn[nH]n2)cc1 (centres undefined)
inhibition in vivo at 15 mg/kg (Rattus norvegicus [2]): 88% | IC50 [3]: 90 nM

CC(C)c1nc2ccc(N(Cc3ccccc3)C(=O)c3ccccc3)cc2c(=O)n1Cc1ccc(-c2ccccc2-c2nnn[nH]2)cc1
IC50 [5]: 0.22 nM

CCc1nc2ccc(N(CC=C(C)C)C(=O)c3ccccc3)cc2c(=O)n1Cc1ccc(-c2ccccc2-c2nn[nH]n2)cc1
IC50 [5]: 0.46 nM

CCc1nc2ccc(N(Cc3ccccc3)C(=O)c3ccncc3)cc2c(=O)n1Cc1ccc(-c2ccccc2-c2nn[nH]n2)cc1
IC50 [5]: 0.22 nM

CCCn1cnc2ccc(Br)cc2c1=O
inhibition at 50 µg/mL (Cytospora mali): 0.9% | inhibition at 50 µg/mL (Fusarium graminearum): 55% | inhibition at 50 µg/mL (Fusarium oxysporum): 47.2%

Cc1nc2ccc(N(Cc3ccccc3)C(=O)c3ccccc3)cc2c(=O)n1Cc1ccc(-c2ccccc2-c2nnn[nH]2)cc1
IC50 [5]: 0.22 nM

COC(=O)[C@H](Cc1c[nH]c2ccccc12)NC(=O)c1ccc(Sc2c(C)ccc3nc(N)[nH]c(=O)c23)cc1
IC50 (Thymidylate synthase): 3 nM | IC50 [4]: 200 nM

CCn1cnc2ccc(F)cc2c1=O
inhibition at 50 µg/mL (Cytospora mali): 0.9% | inhibition at 50 µg/mL (Fusarium graminearum): 5.5% | inhibition at 50 µg/mL (Fusarium oxysporum): 4.9%

CCCCCN(C(=O)c1ccccc1)c1ccc2nc(CCC)n(Cc3ccc(-c4ccccc4-c4nn[nH]n4)cc3)c(=O)c2c1
IC50 [5]: 1 nM

CCCCc1nc2ccc([C@@]3(CO)C[C@H]4CCCN4O3)cc2c(=O)n1Cc1ccc(-c2ccccc2-c2nnn[nH]2)cc1
Activity (Rattus norvegicus [1]): 55 mmHg

COC(=O)c1cccc([C@H](NC(=O)c2ccc(Sc3c(C)ccc4nc(N)nc(O)c34)cc2)C(=O)OC)c1
IC50 (Thymidylate synthase): 3 nM | IC50 [4]: 200 nM

CCn1cnc2ccc(Br)cc2c1=O
inhibition at 50 µg/mL (Cytospora mali): 0.9% | inhibition at 50 µg/mL (Fusarium graminearum): 5.5% | inhibition at 50 µg/mL (Fusarium oxysporum): 4.9%

CCCn1cnc2ccc(Cl)cc2c1=O
inhibition at 50 µg/mL (Cytospora mali): 40.9% | inhibition at 50 µg/mL (Fusarium graminearum): 5.5% | inhibition at 50 µg/mL (Fusarium oxysporum): 4.9%

CCCCc1nc2ccc([C@H]3C[C@H]4CC[C@H](C)N4O3)cc2c(=O)n1Cc1ccc(-c2ccccc2-c2nnn[nH]2)cc1
Activity (Rattus norvegicus [1]): 55 mmHg

CCCCc1nc2ccc([C@@]3(C(=O)N(C)C)C[C@H]4CCCN4O3)cc2c(=O)n1Cc1ccc(-c2ccccc2-c2nnn[nH]2)cc1
Activity (Rattus norvegicus [1]): 55 mmHg

CCCCc1nc2ccc([C@H]3C[C@@]4(C)CCCCN4O3)cc2c(=O)n1Cc1ccc(-c2ccccc2-c2nnn[nH]2)cc1
Activity (Rattus norvegicus [1]): 55 mmHg

C=CCn1cnc2ccc(F)cc2c1=O
inhibition at 50 µg/mL (Cytospora mali): 0.9% | inhibition at 50 µg/mL (Fusarium graminearum): 5.5% | inhibition at 50 µg/mL (Fusarium oxysporum): 4.9%

CCCn1cnc2ccccc2c1=O
inhibition at 50 µg/mL (Cytospora mali): 0.9% | inhibition at 50 µg/mL (Fusarium graminearum): 5.5% | inhibition at 50 µg/mL (Fusarium oxysporum): 4.9%

CCn1cnc2ccccc2c1=O
inhibition at 50 µg/mL (Cytospora mali): 0.9% | inhibition at 50 µg/mL (Fusarium graminearum): 5.5% | inhibition at 50 µg/mL (Fusarium oxysporum): 4.9%

C=CCn1cnc2ccc(Cl)cc2c1=O
inhibition at 50 µg/mL (Cytospora mali): 28.3% | inhibition at 50 µg/mL (Fusarium graminearum): 5.5% | inhibition at 50 µg/mL (Fusarium oxysporum): 4.9%

CCCCc1nc2ccc([C@@]3(C)C[C@H]4CCCN4O3)cc2c(=O)n1Cc1ccc(-c2ccccc2-c2nn[nH]n2)cc1
Activity (Rattus norvegicus [1]): 55 mmHg

CCc1nc2ccc(N(Cc3ccccc3)C(=O)c3cccs3)cc2c(=O)n1Cc1ccc(-c2ccccc2-c2nn[nH]n2)cc1
IC50 [5]: 0.22 nM

Cc1ccc2nc(N)nc(O)c2c1Sc1ccc(C(=O)N[C@H](C(=O)O)c2cccc(C(=O)O)c2)cc1
IC50 (Thymidylate synthase): 3 nM | IC50 [4]: 200 nM

CCCCc1nc2ccc([C@H]3C[C@H]4CCCN4O3)cc2c(=O)n1Cc1ccc(-c2ccccc2-c2nnn[nH]2)cc1
Activity (Rattus norvegicus [1]): 55 mmHg

C=CCn1cnc2ccc(Br)cc2c1=O
inhibition at 50 µg/mL (Cytospora mali): 30.4% | inhibition at 50 µg/mL (Fusarium graminearum): 5.5% | inhibition at 50 µg/mL (Fusarium oxysporum): 4.9%

CCCc1nc2ccc(N(Cc3ccccc3)C(=O)OC(C)(C)C)cc2c(=O)n1Cc1ccc(-c2ccccc2-c2nnn[nH]2)cc1
IC50 [5]: 0.46 nM

CCCCc1nc2ccc([C@]3(CC)C[C@H]4CCCN4O3)cc2c(=O)n1Cc1ccc(-c2ccccc2-c2nn[nH]n2)cc1
Activity (Rattus norvegicus [1]): 55 mmHg

Cc1ccc2nc(N)[nH]c(=O)c2c1Sc1ccc(C(=O)N[C@H](CO)c2ccccc2)cc1
IC50 (Thymidylate synthase): 3 nM | IC50 [4]: 200 nM

Cc1ccc2nc(N)[nH]c(=O)c2c1Sc1ccc(C(=O)N[C@H](C)c2ccccc2)cc1
IC50 (Thymidylate synthase): 3 nM | IC50 [4]: 200 nM

CCCCc1nc2ccc([C@]3(C)C[C@H]4CC[C@H](C)N4O3)cc2c(=O)n1Cc1ccc(-c2ccccc2-c2nnn[nH]2)cc1
Activity (Rattus norvegicus [1]): 55 mmHg

COC(=O)[C@H](Cc1ccccc1)NC(=O)c1ccc(Sc2c(C)ccc3nc(N)[nH]c(=O)c23)cc1
IC50 (Thymidylate synthase): 3 nM | IC50 [4]: 200 nM

COC(=O)c1cccc(NC(=O)c2ccc(Sc3c(C)ccc4nc(N)[nH]c(=O)c34)cc2)c1
IC50 (Thymidylate synthase): 3 nM | IC50 [4]: 200 nM

COC(=O)[C@H](Cc1ccc(O)cc1)NC(=O)c1ccc(Sc2c(C)ccc3nc(N)[nH]c(=O)c23)cc1
IC50 (Thymidylate synthase): 3 nM | IC50 [4]: 200 nM

Cc1ccc2nc(N)[nH]c(=O)c2c1Sc1ccc(C(=O)Nc2cccc(C(=O)O)c2)cc1
IC50 (Thymidylate synthase): 3 nM | IC50 [4]: 200 nM

CCCCc1nc2ccc([C@H]3C[C@H]4CCCCN4O3)cc2c(=O)n1Cc1ccc(-c2ccccc2-c2nnn[nH]2)cc1
Activity (Rattus norvegicus [1]): 55 mmHg

Cc1nc2ccc(N(Cc3ccccc3Cl)C(=O)c3ccccc3)cc2c(=O)n1Cc1ccc(-c2ccccc2-c2nn[nH]n2)cc1
IC50 [5]: 0.06 nM

CCCn1cnc2ccc(F)cc2c1=O
inhibition at 50 µg/mL (Cytospora mali): 0.9% | inhibition at 50 µg/mL (Fusarium graminearum): 5.5% | inhibition at 50 µg/mL (Fusarium oxysporum): 4.9%

CCCCc1nc2ccc([C@@]3(C(=O)N4CCCCC4)C[C@H]4CCCN4O3)cc2c(=O)n1Cc1ccc(-c2ccccc2-c2nnn[nH]2)cc1
Activity (Rattus norvegicus [1]): 55 mmHg

CC(C)c1nc2ccc(N(Cc3ccccc3)C(=O)c3cccs3)cc2c(=O)n1Cc1ccc(-c2ccccc2-c2nnn[nH]2)cc1
IC50 [5]: 0.22 nM

CCCCc1nc2ccc([C@@]3(C(=O)N4CCCC4)C[C@H]4CCCN4O3)cc2c(=O)n1Cc1ccc(-c2ccccc2-c2nnn[nH]2)cc1
Activity (Rattus norvegicus [1]): 55 mmHg

C=CCn1cnc2ccccc2c1=O
inhibition at 50 µg/mL (Cytospora mali): 0.9% | inhibition at 50 µg/mL (Fusarium graminearum): 5.5% | inhibition at 50 µg/mL (Fusarium oxysporum): 4.9%

CCCCc1nc2ccc([C@]3(C)C[C@H]4CCCCN4O3)cc2c(=O)n1Cc1ccc(-c2ccccc2-c2nn[nH]n2)cc1
Activity (Rattus norvegicus [1]): 55 mmHg

COC(=O)[C@@H](NC(=O)c1ccc(Sc2c(C)ccc3nc(N)[nH]c(=O)c23)s1)c1ccccc1
IC50 (Thymidylate synthase): 3 nM | IC50 [4]: 200 nM

CCn1cnc2ccc(Cl)cc2c1=O
inhibition at 50 µg/mL (Cytospora mali): 0.9% | inhibition at 50 µg/mL (Fusarium graminearum): 5.5% | inhibition at 50 µg/mL (Fusarium oxysporum): 4.9%

COC(=O)[C@H](NC(=O)c1ccc(Sc2c(C)ccc3nc(N)[nH]c(=O)c23)cc1)c1ccccc1
IC50 (Thymidylate synthase): 3 nM | IC50 [4]: 200 nM

Cc1ccc2nc(N)[nH]c(=O)c2c1Sc1ccc(C(=O)N[C@@H](Cc2ccccc2)C(=O)O)cc1
IC50 (Thymidylate synthase): 3 nM | IC50 [4]: 200 nM

COC(=O)[C@@H](NC(=O)c1ccc(Sc2c(C)ccc3nc(N)nc(O)c23)cc1)c1cccc(O)c1
IC50 (Thymidylate synthase): 3 nM | IC50 [4]: 200 nM

COC(=O)[C@@H](NC(=O)c1ccc(Sc2c(C)ccc3nc(N)nc(O)c23)cc1)c1ccccc1
IC50 (Thymidylate synthase): 3 nM | IC50 [4]: 200 nM

CCc1nc2ccc(N(Cc3ccccc3Cl)C(=O)c3ccccc3)cc2c(=O)n1Cc1ccc(-c2ccccc2-c2nn[nH]n2)cc1
IC50 [5]: 0.22 nM

CCCCc1nc2ccc([C@@]3(C)C[C@H]4CCCCN4O3)cc2c(=O)n1Cc1ccc(-c2ccccc2-c2nn[nH]n2)cc1
Activity (Rattus norvegicus [1]): 55 mmHg
